Test results from PubChem BioAssay AID248 (DTP/NCI, 2004).
Values joined by “and” are separate entries in the source; they are usually repeats but may differ in a detail not shown here. Equal values may be shown once. Toxic doses and inconclusive results are not listed. Cut-off read from the data, not from the text of the source: active = T/C of 150% or more; inactive = T/C below 125%.

Test system: L1210 leukemia ip in BDF1 mice, survival T/C
Experiment: NCI In Vivo Anticancer Drug Screen. Data for tumor model L1210 Leukemia (intraperitoneal) in B6D2F1 (BDF1) mice
Settings: endpoint: mean survival time, higher = longer survival
How it was run: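 In this screen, tumor-bearing mice given compound are compared to those given vehicle, and their survival values are reported as a treated-to-control quotient.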

[1] = dose: 100.0 mg/kg/injection, schedule: Q01DX001 (ip), vehicle: saline with Tween-80
[2] = dose: 200.0 mg/kg/injection, schedule: Q01DX001 (ip), vehicle: saline with Tween-80
[3] = dose: 400.0 mg/kg/injection, schedule: Q01DX001 (ip), vehicle: saline with Tween-80
[4] = dose: 50.0 mg/kg/injection, schedule: Q01DX001 (ip), vehicle: carboxymethylcellulose (CMC)
[5] = dose: 100.0 mg/kg/injection, schedule: Q01DX001 (ip), vehicle: carboxymethylcellulose (CMC)
[6] = dose: 100.0 mg/kg/injection, schedule: Q04DX002 (ip), vehicle: Klucel (hydroxypropylcellulose) (HPC)
[7] = dose: 200.0 mg/kg/injection, schedule: Q01DX001 (ip), vehicle: carboxymethylcellulose (CMC)
[8] = dose: 200.0 mg/kg/injection, schedule: Q04DX002 (ip), vehicle: Klucel (hydroxypropylcellulose) (HPC)
[9] = dose: 400.0 mg/kg/injection, schedule: Q01DX001 (ip), vehicle: carboxymethylcellulose (CMC)
[10] = dose: 400.0 mg/kg/injection, schedule: Q04DX002 (ip), vehicle: Klucel (hydroxypropylcellulose) (HPC)
[11] = dose: 50.0 mg/kg/injection, schedule: Q01DX001 (ip), vehicle: saline
[12] = dose: 100.0 mg/kg/injection, schedule: Q01DX001 (ip), vehicle: saline
[13] = dose: 200.0 mg/kg/injection, schedule: Q01DX001 (ip), vehicle: saline
[14] = dose: 400.0 mg/kg/injection, schedule: Q01DX001 (ip), vehicle: saline
[15] = dose: 100.0 mg/kg/injection, schedule: Q04DX002 (ip), vehicle: saline with Tween-80
[16] = dose: 200.0 mg/kg/injection, schedule: Q04DX002 (ip), vehicle: saline with Tween-80
[17] = dose: 400.0 mg/kg/injection, schedule: Q04DX002 (ip), vehicle: saline with Tween-80
[18] = dose: 100.0 mg/kg/injection, schedule: Q04DX003 (ip), vehicle: saline with Tween-80
[19] = dose: 200.0 mg/kg/injection, schedule: Q04DX003 (ip), vehicle: saline with Tween-80
[20] = dose: 400.0 mg/kg/injection, schedule: Q04DX003 (ip), vehicle: saline with Tween-80
[21] = dose: 100.0 mg/kg/injection, schedule: Q04DX002 (ip), vehicle: saline
[22] = dose: 200.0 mg/kg/injection, schedule: Q04DX002 (ip), vehicle: saline
[23] = dose: 400.0 mg/kg/injection, schedule: Q04DX002 (ip), vehicle: saline
[24] = dose: 100.0 mg/kg/injection, schedule: Q04DX003 (ip), vehicle: saline
[25] = dose: 200.0 mg/kg/injection, schedule: Q04DX003 (ip), vehicle: saline
[26] = dose: 400.0 mg/kg/injection, schedule: Q04DX003 (ip), vehicle: saline

Measured: T/C

COC(O)C(O)C(O)C(O)CO (stereo unspecified) (tested in a mixture with another compound)
inactive: [1] 90 % of control | [2] 97 % of control | [3] 93 % of control

CC(=O)Cc1c[nH]c2ccccc12
inactive: [4] 103 % of control | [5] 97 % of control | [6] 97 % of control | [7] 106 % of control | [8] 101 % of control | [9] 103 % of control | [10] 111 % of control

CC(=O)Nc1nncs1
inactive: dose: 7.0 mg/kg/injection, schedule: Q03HX032 (ip), vehicle: saline with Tween-80 105 % of control | dose: 11.0 mg/kg/injection, schedule: Q03HX032 (ip), vehicle: saline with Tween-80 108 % of control | dose: 16.0 mg/kg/injection, schedule: Q03HX032 (ip), vehicle: saline with Tween-80 107 % of control | dose: 24.0 mg/kg/injection, schedule: Q03HX032 (ip), vehicle: saline with Tween-80 101 % of control | dose: 27.0 mg/kg/injection, schedule: Q01DX015 (ip), vehicle: saline with Tween-80 109 % of control | dose: 31.0 mg/kg/injection, schedule: Q01DX015 (ip), vehicle: carboxymethylcellulose (CMC) 96 % of control | dose: 36.0 mg/kg/injection, schedule: Q03HX032 (ip), vehicle: saline with Tween-80 108 % of control | dose: 40.0 mg/kg/injection, schedule: Q01DX015 (ip), vehicle: saline with Tween-80 95 % of control | [11] 112 % of control | dose: 60.0 mg/kg/injection, schedule: Q01DX015 (ip), vehicle: saline with Tween-80 97 % of control | dose: 62.0 mg/kg/injection, schedule: Q01DX015 (ip), vehicle: carboxymethylcellulose (CMC) 102 % of control | dose: 90.0 mg/kg/injection, schedule: Q01DX015 (ip), vehicle: saline with Tween-80 101 % of control | [12] 115 % of control | dose: 135.0 mg/kg/injection, schedule: Q01DX015 (ip), vehicle: saline with Tween-80 95 % of control | [13] 112 % of control | dose: 248.0 mg/kg/injection, schedule: Q01DX015 (ip), vehicle: carboxymethylcellulose (CMC) 98 % of control | dose: 270.0 mg/kg/injection, schedule: Q01DX001 (ip), vehicle: saline with Tween-80 101 % of control | [3] 109 % of control | [14] 106 % of control | dose: 600.0 mg/kg/injection, schedule: Q01DX001 (ip), vehicle: saline with Tween-80 112 % of control | dose: 900.0 mg/kg/injection, schedule: Q01DX001 (ip), vehicle: saline with Tween-80 109 % of control | dose: 1350.0 mg/kg/injection, schedule: Q01DX001 (ip), vehicle: saline with Tween-80 120 % of control

Clc1ccccc1N1CCN(c2c3c(nc4ccccc24)CCCCC3)CC1
inactive: [12] 97 % of control | [13] 103 % of control | [14] 97 % of control

O=C1CCCC/C1=C\c1cccc2ccccc12
inactive: [15] 103 % of control | [16] 96 % of control | [17] 88 % of control

CCNC(=S)NNC(=O)c1ccc(N=NN(C)C)cc1
inactive: [15] 100 % of control | [16] 94 % of control | [17] 100 % of control

COc1cccc(/C=N/N=C(N)N)c1OC
inactive: dose: 62.5 mg/kg/injection, schedule: Q01DX Z (ip), vehicle: saline 101 % of control

OCC(O)COCc1ccccc1 (stereo unspecified)
inactive: [18] 109 % of control | [19] 104 % of control | [20] 106 % of control

N#CC(O)Cc1ccccc1 (stereo unspecified)
inactive: dose: 2.5 mg/kg/injection, schedule: Q01DX009 (ip), vehicle: saline 95 % of control | dose: 5.0 mg/kg/injection, schedule: Q01DX009 (ip), vehicle: saline 90 % of control | dose: 10.0 mg/kg/injection, schedule: Q01DX009 (ip), vehicle: saline 97 % of control

COC(=O)c1cc(Cl)ccc1OCC(=O)Nc1cccc([N+](=O)[O-])c1
inactive: dose: 100.0 mg/kg/injection, schedule: Q01DX009 (ip), vehicle: Klucel (hydroxypropylcellulose) (HPC) 96 % of control | [6] 94 % of control | [21] 94 % of control | dose: 200.0 mg/kg/injection, schedule: Q01DX009 (ip), vehicle: Klucel (hydroxypropylcellulose) (HPC) 89 % of control | [8] 92 % of control | [22] 97 % of control | dose: 400.0 mg/kg/injection, schedule: Q01DX009 (ip), vehicle: Klucel (hydroxypropylcellulose) (HPC) 104 % of control | [10] 92 % of control | [23] 97 % of control

Cc1c[n+]([O-])ccc1N=Nc1ccc(N(C)C)cc1
inactive: dose: 25.0 mg/kg/injection, schedule: Q04DX003 (ip), vehicle: Klucel (hydroxypropylcellulose) (HPC) 104 % of control | dose: 50.0 mg/kg/injection, schedule: Q04DX003 (ip), vehicle: Klucel (hydroxypropylcellulose) (HPC) 110 % of control | dose: 100.0 mg/kg/injection, schedule: Q04DX003 (ip), vehicle: Klucel (hydroxypropylcellulose) (HPC) 106 % of control and 107 % of control

CC/C=C1\CCOC1=O
inactive: [21] 102 % of control | [22] 102 % of control | [23] 115 % of control

O=C(Cl)c1cccc2c1sc1ccccc12
inactive: dose: 100.0 mg/kg/injection, schedule: Q01DX009 (ip), vehicle: saline with Tween-80 102 % of control | [18] 97 % of control | dose: 200.0 mg/kg/injection, schedule: Q01DX009 (ip), vehicle: saline with Tween-80 102 % of control | [19] 98 % of control | dose: 400.0 mg/kg/injection, schedule: Q01DX009 (ip), vehicle: saline with Tween-80 100 % of control | [20] 98 % of control

CCOC(=O)C(C(=O)O)C(=O)CCO (stereo unspecified)
inactive: [12] 98 % of control | [13] 94 % of control

CC(Br)C1(c2cccc([N+](=O)[O-])c2)OCCO1 (stereo unspecified)
inactive: [24] 105 % of control | [25] 100 % of control | [26] 108 % of control

CC(=O)N(Cc1ccccc1)C1C(OCc2ccccc2)OC(CO)C(O)C1OCc1ccccc1 (stereo unspecified)
inactive: [1] 89 % of control | [2] 96 % of control | [3] 100 % of control

CN(C(=O)Cc1ccccc1)c1ccccc1[N+](=O)[O-]
inactive: [11] 98 % of control | [12] 104 % of control | [13] 95 % of control | [14] 101 % of control

O=C(O)CSC1=NCCN1
inactive: dose: 25.0 mg/kg/injection, schedule: Q01DX009 (ip), vehicle: saline 91 % of control | dose: 50.0 mg/kg/injection, schedule: Q01DX009 (ip), vehicle: saline 92 % of control | dose: 50.0 mg/kg/injection, schedule: Q04DX002 (ip), vehicle: saline 106 % of control and 113 % of control | dose: 100.0 mg/kg/injection, schedule: Q01DX009 (ip), vehicle: saline 90 % of control | [21] 100 % of control and 113 % of control | dose: 200.0 mg/kg/injection, schedule: Q01DX009 (ip), vehicle: saline 93 % of control | dose: 400.0 mg/kg/injection, schedule: Q01DX009 (ip), vehicle: saline 91 % of control | [23] 106 % of control
260 % of control and 91 % of control: [22]

O=C1c2cc(Br)ccc2-c2c(I)cc(Br)cc21
inactive: [4] 103 % of control | [5] 100 % of control | [7] 100 % of control | [9] 100 % of control

Cc1ccc(S(=O)(=O)N2CN3CN(C2)CN(S(=O)(=O)c2ccc(C)cc2)C3)cc1
inactive: [24] 95 % of control | [25] 86 % of control | [26] 95 % of control

CC(C)(CO)N=Cc1ccc(Cl)cc1Cl
inactive: [12] 93 % of control | [13] 102 % of control | [14] 102 % of control

O=C(COC(=O)c1c(Cl)c(Cl)c(Cl)c(Cl)c1C(=O)O)c1ccc(-c2ccccc2)cc1
inactive: [12] 94 % of control | [13] 102 % of control | [14] 91 % of control

COC1OC(CCl)C(OC(C)=O)C(OC(C)=O)C1OC(C)=O (stereo unspecified)
inactive: [6] 96 % of control and 106 % of control | [8] 104 % of control and 106 % of control | [10] 101 % of control and 103 % of control
